Patent publication US20240409585A1, “MACROCYCLIC IMMUNOMODULATORS” (priority 2021, published 2024)
Numbered stars: 1 amine (or outer) side, 2 acyl side, 3 side chain; on linkers, the order of the positions; unused ones are H or OH. Bridge positions count the residues as written; N and C are the ends. Square brackets hold non-standard residues; d marks the D form. Peptide text beside a SMILES is read from it. * marks the point of attachment. Tyr(3-NO2) = N[C@@H](Cc1ccc(O)c([N+](=O)[O-])c1)C(=O)O; Phe(4-COOH) = N[C@@H](Cc1ccc(C(=O)O)cc1)C(=O)O; Bip = N[C@@H](Cc1ccc(-c2ccccc2)cc1)C(=O)O; X37 = O=C([C@H](Cc1cn[nH]c1)N[*:1])[*:2]; 3Pal = N[C@@H](Cc1cccnc1)C(=O)O; 4Pal = N[C@@H](Cc1ccncc1)C(=O)O; Cit = NC(=O)NCCC[C@H](N)C(=O)O; Carboxymethyl = O=C(O)C*; NMeA = CN[C@@H](C)C(=O)O; Orn = NCCC[C@H](N)C(=O)O; Dab = NCC[C@H](N)C(=O)O

target: T1, PE-labeled human PD-L1-Ig binding to Jurkat cell line over-expressing human PD-1 (Jurkat-PD-1) (Homo sapiens, UniProt Q15116); experiment: Jurkat-PD-1 Cell Binding High-Content Screening Assay (CBA): Method 1; conditions: Jurkat-hPD-1 cells, PE-labeled PD-L1-Ig 20 nM final; read-out: Jurkat HPDL1 PD1 IC50 (uM) (Method 1)
T1 construct: expressed in transfected cells; host or cells: Jurkat
T1 sequence (Q15116 25-288): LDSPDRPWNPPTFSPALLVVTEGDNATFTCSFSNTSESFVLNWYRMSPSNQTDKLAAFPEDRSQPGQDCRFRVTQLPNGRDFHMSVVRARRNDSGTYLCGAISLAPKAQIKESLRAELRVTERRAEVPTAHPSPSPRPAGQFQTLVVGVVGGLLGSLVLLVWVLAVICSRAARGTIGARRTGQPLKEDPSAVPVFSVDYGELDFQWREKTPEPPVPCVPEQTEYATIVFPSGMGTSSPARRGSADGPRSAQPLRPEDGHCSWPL

| SMILES | IC50 |
| --- | --- |
| CC(C)C[C@@H]1NC(=O)[C@H](CCCN)NC(=O)[C@@H](CC(C)C)NC(=O)[C@H](C)N(C)C(=O)[C@H](CCCNC(=N)N)NC(=O)[C@H](Cc2ccc(-c3ccccc3)cc2)NC(=O)[C@H](C(C)C)NC(=O)[C@H](Cc2c[nH]c3ccccc23)NC(=O)[C@H](CC(=O)O)NC(=O)[C@H](Cc2ccc(OCC(=O)O)cc2)NC(=O)[C@H](CC(N)=O)NC(=O)CSC[C@@H](C(=O)N[C@@H](C)C(N)=O)NC(=O)[C@H]([C@@H](C)O)NC(=O)[C@H](C(C)C)NC1=O [Compound 1152] ({CH2CO}-NY(Carboxymethyl)DWV[Bip]R[NMeA][dL][Orn]LVTCA-NH2; thioether N-14) | 0.08 µM |
| CC(C)C[C@@H]1NC(=O)[C@H](CCCNC(=N)N)NC(=O)[C@@H](Cc2ccccc2)NC(=O)[C@H](C)N(C)C(=O)[C@H](CCCNC(=N)N)NC(=O)[C@H](Cc2ccc(-c3ccccc3)cc2)NC(=O)[C@H](C(C)C)NC(=O)[C@H](Cc2c[nH]c3ccccc23)NC(=O)[C@H](CC(=O)O)NC(=O)[C@H](Cc2ccc(O)cc2)NC(=O)[C@H](CC(N)=O)NC(=O)CSC[C@@H](C(=O)N[C@@H](C)C(N)=O)NC(=O)[C@H]([C@@H](C)O)NC(=O)[C@H](C(C)C)NC1=O [Compound 1153] ({CH2CO}-NYDWV[Bip]R[NMeA][dF]RLVTCA-NH2; thioether N-14) | 0.19 µM |
| CC(C)C[C@@H]1NC(=O)[C@H](CCN)NC(=O)[C@@H](CC(C)C)NC(=O)[C@H](C)N(C)C(=O)[C@H](CCCNC(=N)N)NC(=O)[C@H](Cc2ccc(-c3ccccc3)cc2)NC(=O)[C@H](C(C)C)NC(=O)[C@H](Cc2c[nH]c3ccccc23)NC(=O)[C@H](CC(=O)O)NC(=O)[C@H](Cc2cnc[nH]2)NC(=O)[C@H](Cc2cccnc2)NC(=O)CSC[C@@H](C(=O)N[C@@H](C)C(N)=O)NC(=O)[C@H]([C@@H](C)O)NC(=O)[C@H](C(C)C)NC1=O [Compound 1157] ({CH2CO}-[3Pal]HDWV[Bip]R[NMeA][dL][Dab]LVTCA-NH2; thioether N-14) | 0.11 µM |
| CC(C)C[C@@H]1NC(=O)[C@H](CCN)NC(=O)[C@@H](CC(C)C)NC(=O)[C@H](C)N(C)C(=O)[C@H](CCCNC(=N)N)NC(=O)[C@H](Cc2ccc(-c3ccccc3)cc2)NC(=O)[C@H](C(C)C)NC(=O)[C@H](Cc2c[nH]c3ccccc23)NC(=O)[C@H](CC(=O)O)NC(=O)[C@H](Cc2ccc(O)cc2)NC(=O)[C@H](Cc2cn[nH]c2)NC(=O)CSC[C@@H](C(=O)N[C@@H](C)C(N)=O)NC(=O)[C@H]([C@@H](C)O)NC(=O)[C@H](C(C)C)NC1=O [Compound 1159] ({CH2CO}-[X37]YDWV[Bip]R[NMeA][dL][Dab]LVTCA-NH2; thioether N-14) | 0.07 µM |
| CC(C)C[C@@H]1NC(=O)[C@H](CCCNC(=N)N)NC(=O)[C@@H](Cc2ccccc2)NC(=O)[C@H](C)N(C)C(=O)[C@H](CCCNC(=N)N)NC(=O)[C@H](Cc2ccc(-c3ccccc3)cc2)NC(=O)[C@H](C(C)C)NC(=O)[C@H](Cc2c[nH]c3ccccc23)NC(=O)[C@H](CC(=O)O)NC(=O)[C@H](Cc2ccc(O)cc2)NC(=O)[C@H](Cc2cccnc2)NC(=O)CSC[C@@H](C(=O)N[C@@H](C)C(N)=O)NC(=O)[C@H]([C@@H](C)O)NC(=O)[C@H](C(C)C)NC1=O [Compound 1161] ({CH2CO}-[3Pal]YDWV[Bip]R[NMeA][dF]RLVTCA-NH2; thioether N-14) | 0.11 µM |
| CC(C)C[C@@H]1NC(=O)[C@H](CCCNC(=N)N)NC(=O)[C@@H](Cc2ccccc2)NC(=O)[C@H](C)N(C)C(=O)[C@H](CCCNC(=N)N)NC(=O)[C@H](Cc2ccc(-c3ccccc3)cc2)NC(=O)[C@H](C(C)C)NC(=O)[C@H](Cc2c[nH]c3ccccc23)NC(=O)[C@H](CC(=O)O)NC(=O)[C@H](Cc2ccncc2)NC(=O)[C@H](CC(N)=O)NC(=O)CSC[C@@H](C(=O)N[C@@H](C)C(N)=O)NC(=O)[C@H]([C@@H](C)O)NC(=O)[C@H](C(C)C)NC1=O [Compound 1162] ({CH2CO}-N[4Pal]DWV[Bip]R[NMeA][dF]RLVTCA-NH2; thioether N-14) | 0.22 µM |
| CC(C)C[C@@H]1NC(=O)[C@H](CCN)NC(=O)[C@@H](CC(C)C)NC(=O)[C@H](C)N(C)C(=O)[C@H](CCC(=O)O)NC(=O)[C@H](Cc2ccc(-c3ccccc3)cc2)NC(=O)[C@H](C(C)C)NC(=O)[C@H](Cc2c[nH]c3ccccc23)NC(=O)[C@H](CC(=O)O)NC(=O)[C@H](Cc2ccc(O)cc2)NC(=O)[C@H](Cc2ccccc2)NC(=O)CSC[C@@H](C(=O)N[C@@H](CCC(=O)O)C(N)=O)NC(=O)[C@H]([C@@H](C)O)NC(=O)[C@H](C(C)C)NC1=O [Compound 1164] ({CH2CO}-FYDWV[Bip]E[NMeA][dL][Dab]LVTCE-NH2; thioether N-14) | 0.07 µM |
| CC(C)C[C@@H]1NC(=O)[C@H](CCCN)NC(=O)[C@@H](CC(C)C)NC(=O)[C@H](C)N(C)C(=O)[C@H](CCCNC(=N)N)NC(=O)[C@H](Cc2ccc(-c3ccccc3)cc2)NC(=O)[C@H](C(C)C)NC(=O)[C@H](Cc2c[nH]c3ccccc23)NC(=O)[C@H](CC(=O)O)NC(=O)[C@H](Cc2ccc(O)cc2)NC(=O)[C@H](CC(N)=O)NC(=O)CSC[C@@H](C(=O)N[C@@H](CCC(=O)O)C(N)=O)NC(=O)[C@H]([C@@H](C)O)NC(=O)[C@H](C(C)C)NC1=O [Compound 1165] ({CH2CO}-NYDWV[Bip]R[NMeA][dL][Orn]LVTCE-NH2; thioether N-14) | 0.15 µM |
| CC(C)C[C@@H]1NC(=O)[C@H](CCCNC(=N)N)NC(=O)[C@@H](CC(C)C)NC(=O)[C@H](C)N(C)C(=O)[C@H](CCCNC(N)=O)NC(=O)[C@H](Cc2ccc(-c3ccccc3)cc2)NC(=O)[C@H](C(C)C)NC(=O)[C@H](Cc2c[nH]c3ccccc23)NC(=O)[C@H](CC(=O)O)NC(=O)[C@H](Cc2ccc(O)cc2)NC(=O)[C@H](CC(N)=O)NC(=O)CSC[C@@H](C(=O)N[C@@H](C)C(N)=O)NC(=O)[C@H]([C@@H](C)O)NC(=O)[C@H](C(C)C)NC1=O [Compound 1166] ({CH2CO}-NYDWV[Bip][Cit][NMeA][dL]RLVTCA-NH2; thioether N-14) | 0.06 µM |

The next compounds have a lower IC50 than those just listed; values first:

| IC50 | SMILES |
| --- | --- |
| 0.03 µM | CC(C)C[C@@H]1NC(=O)[C@H](CCCN)NC(=O)[C@@H](CC(C)C)NC(=O)[C@H](C)N(C)C(=O)[C@H](CCCNC(=N)N)NC(=O)[C@H](Cc2ccc(-c3ccccc3)cc2)NC(=O)[C@H](C(C)C)NC(=O)[C@H](Cc2c[nH]c3ccccc23)NC(=O)[C@H](CC(=O)O)NC(=O)[C@H](Cc2ccc(O)c([N+](=O)[O-])c2)NC(=O)[C@H](CC(N)=O)NC(=O)CSC[C@@H](C(=O)N[C@@H](C)C(N)=O)NC(=O)[C@H]([C@@H](C)O)NC(=O)[C@H](C(C)C)NC1=O [Compound 1154] ({CH2CO}-N[Tyr(3-NO2)]DWV[Bip]R[NMeA][dL][Orn]LVTCA-NH2; thioether N-14) |
| 0.02 µM | CC(C)C[C@@H]1NC(=O)[C@H](CCN)NC(=O)[C@@H](CC(C)C)NC(=O)[C@H](C)N(C)C(=O)[C@H](CCCNC(=N)N)NC(=O)[C@H](Cc2ccc(-c3ccccc3)cc2)NC(=O)[C@H](C(C)C)NC(=O)[C@H](Cc2c[nH]c3ccccc23)NC(=O)[C@H](CC(=O)O)NC(=O)[C@H](Cc2ccc(O)c([N+](=O)[O-])c2)NC(=O)[C@H](Cc2cccnc2)NC(=O)CSC[C@@H](C(=O)N[C@@H](C)C(N)=O)NC(=O)[C@H]([C@@H](C)O)NC(=O)[C@H](C(C)C)NC1=O [Compound 1155] ({CH2CO}-[3Pal][Tyr(3-NO2)]DWV[Bip]R[NMeA][dL][Dab]LVTCA-NH2; thioether N-14) |
| 0.03 µM | CC(C)C[C@@H]1NC(=O)[C@H](CCCN)NC(=O)[C@@H](CC(C)C)NC(=O)[C@H](C)N(C)C(=O)[C@H](CCCNC(=N)N)NC(=O)[C@H](Cc2ccc(-c3ccccc3)cc2)NC(=O)[C@H](C(C)C)NC(=O)[C@H](Cc2c[nH]c3ccccc23)NC(=O)[C@H](CC(=O)O)NC(=O)[C@H](Cc2ccc(C(=O)O)cc2)NC(=O)[C@H](Cc2ccccc2)NC(=O)CSC[C@@H](C(=O)N[C@@H](C)C(N)=O)NC(=O)[C@H]([C@@H](C)O)NC(=O)[C@H](C(C)C)NC1=O [Compound 1156] ({CH2CO}-F[Phe(4-COOH)]DWV[Bip]R[NMeA][dL][Orn]LVTCA-NH2; thioether N-14) |
| 0.03 µM | CC(C)C[C@@H]1NC(=O)[C@H](CCN)NC(=O)[C@@H](CC(C)C)NC(=O)[C@H](C)N(C)C(=O)[C@H](CCCNC(=N)N)NC(=O)[C@H](Cc2ccc(-c3ccccc3)cc2)NC(=O)[C@H](C(C)C)NC(=O)[C@H](Cc2c[nH]c3ccccc23)NC(=O)[C@H](CC(=O)O)NC(=O)[C@H](Cc2ccc(OCC(=O)O)cc2)NC(=O)[C@H](Cc2cccnc2)NC(=O)CSC[C@@H](C(=O)N[C@@H](C)C(N)=O)NC(=O)[C@H]([C@@H](C)O)NC(=O)[C@H](C(C)C)NC1=O [Compound 1158] ({CH2CO}-[3Pal]Y(Carboxymethyl)DWV[Bip]R[NMeA][dL][Dab]LVTCA-NH2; thioether N-14) |
| 0.03 µM | CC(C)C[C@@H]1NC(=O)[C@H](CCN)NC(=O)[C@@H](CC(C)C)NC(=O)[C@H](C)N(C)C(=O)[C@H](CCCNC(=N)N)NC(=O)[C@H](Cc2ccc(-c3ccccc3)cc2)NC(=O)[C@H](C(C)C)NC(=O)[C@H](Cc2c[nH]c3ccccc23)NC(=O)[C@H](CC(=O)O)NC(=O)[C@H](Cc2ccc(O)c([N+](=O)[O-])c2)NC(=O)[C@H](CC(N)=O)NC(=O)CSC[C@@H](C(=O)N[C@@H](C)C(N)=O)NC(=O)[C@H]([C@@H](C)O)NC(=O)[C@H](C(C)C)NC1=O [Compound 1160] ({CH2CO}-N[Tyr(3-NO2)]DWV[Bip]R[NMeA][dL][Dab]LVTCA-NH2; thioether N-14) |
| 0.04 µM | CC(C)C[C@@H]1NC(=O)[C@H](CCCN)NC(=O)[C@@H](CC(C)C)NC(=O)[C@H](C)N(C)C(=O)[C@H](CCC(=O)O)NC(=O)[C@H](Cc2ccc(-c3ccccc3)cc2)NC(=O)[C@H](C(C)C)NC(=O)[C@H](Cc2c[nH]c3ccccc23)NC(=O)[C@H](CC(=O)O)NC(=O)[C@H](Cc2ccc(O)cc2)NC(=O)[C@H](Cc2ccccc2)NC(=O)CSC[C@@H](C(=O)N[C@@H](CCC(=O)O)C(N)=O)NC(=O)[C@H]([C@@H](C)O)NC(=O)[C@H](C(C)C)NC1=O [Compound 1163] ({CH2CO}-FYDWV[Bip]E[NMeA][dL][Orn]LVTCE-NH2; thioether N-14) |
